# Read-outs that look alike come from different tables or passages of the source.
# Legend:
# [1] = tested on: Jurkat cells; settings: peptide 10^−10M, PHA 1 μg/mL
# [2] = tested on: IL-2; settings: umbilical cord blood; PHA; cited from earlier work
# [3] = tested on: newborn rat thymocytes; settings: Con A 50 pg/mL
# Text: It was used an octapeptide with similar weight for the elaboration of the complex, to which was just the proline (4) and Glycine (5) original amino acids were interchanged by proline (4) and Glycine (5) resulting as […].
# [4] = tested on: THP-1 cells; settings: for Proliferation (% with respect to the control): LPS 0.5 μg/mL
# Text: We proceeded to perform some related to the proliferative stimulation of the peptide in presence of other divalent cations such as magnesium, copper, and manganese.
# [5] = tested on: human lymphocytes; settings: for Proliferation (% with respect to the control): PHA 1 μg/mL
substance,measurement,setting,value
LEDGPKFL [reference compound],Proliferation (% with respect to the control),[1]; [ZINC] (M) −8,195 ± 10 %
same,Proliferation (% with respect to the control),[1]; [ZINC] (M) −9,192 ± 12 %
same,Proliferation (% with respect to the control),[1]; [ZINC] (M) −10,190 ± 10 %
same,Proliferation (% with respect to the control),[1]; [ZINC] (M) −11,135 ± 10 %
same,Proliferation (% with respect to the control),[1]; [ZINC] (M) −12,102 ± 5.2%
same,Concentrations increasing IL-2 production,[2],300 to 600 ng/mL
same,Proliferation (% with respect to the control),[3]; 10^−6 (918 ng/mL),123.1 ± 6.1 %
same,Proliferation (% with respect to the control),[3]; 10^−7 (91.8 ng/mL),125.6 ± 3.9 %
same,Proliferation (% with respect to the control),[3]; 10^−7.5 (9.58 ng/mL),119.2 ± 6.1 %
same,Proliferation (% with respect to the control),[3]; 10^−8 (9.18 ng/mL),117.3 ± 3.2 %
same,Proliferation (% with respect to the control),[3]; 10^−9 (0.91 ng/mL),110.6 ± 7.9%
same,Proliferation (% with respect to the control),[3]; 10^−10 (0.09 ng/mL),104.3 ± 4.8%
same,Proliferation (% with respect to the control),[3]; 10^−11 (0.009 ng/mL),103.7 ± 5.1%
same,Proliferation (% with respect to the control),[3]; 10^−12 (0.0009 ng/mL),104.4 ± 2.5%
Zinc [reference compound],Proliferation (% with respect to the control),[4]; Concentration (M) −6,105 ± 8.8%
same,Proliferation (% with respect to the control),[4]; Concentration (M) −7,102 ± 9.7%
same,Proliferation (% with respect to the control),[4]; Concentration (M) −7.5,104 ± 8.8%
same,Proliferation (% with respect to the control),[4]; Concentration (M) −8,102 ± 12.1%
same,Proliferation (% with respect to the control),[4]; Concentration (M) −9,103 ± 9.9%
same,Proliferation (% with respect to the control),[4]; Concentration (M) −10,100 ± 7.0%
same,Proliferation (% with respect to the control),[4]; Concentration (M) −11,101 ± 3.9%
same,Proliferation (% with respect to the control),[4]; Concentration (M) −12,98 ± 4.5%
same,Effect on proliferation,[4]; zinc ion by itself,did not stimulate the proliferation
same,Proliferation (% with respect to the control),[5]; Concentration (M) −6,96 ± 2.8%
same,Proliferation (% with respect to the control),[5]; Concentration (M) −7,99 ± 2.7%
same,Proliferation (% with respect to the control),[5]; Concentration (M) −7.5,95 ± 3.8%
same,Proliferation (% with respect to the control),[5]; Concentration (M) −8,101 ± 4.1%
same,Proliferation (% with respect to the control),[5]; Concentration (M) −9,103 ± 3.9%
same,Proliferation (% with respect to the control),[5]; Concentration (M) −10,100 ± 3.0%
same,Proliferation (% with respect to the control),[5]; Concentration (M) −11,99 ± 3.9%
same,Proliferation (% with respect to the control),[5]; Concentration (M) −12,96 ± 4.5%
same,Effect on proliferation,"[5]; zinc ion by itself, PHA stimulated",did not modify the proliferation

# Source: patent publication US20150132328A1 (priority 2011, published 2015)
